pIC50: −log10 of the molar value. Converted amounts (≈) assume the structure as drawn.
Tests used:
Mus musculus = assay: Inhibition of estradiol-induced uterine edema in mouse at 10 mg/kg, po; conditions: read-out: Inhibition
[1] = Aqueous solubility at pH 7.2; format: physicochemical; conditions: buffer
[2] = Half life in mouse at 3 mg/kg, iv; format: ADME, organism-based; design: dose 3 mg/kg, route intravenous; conditions: in vivo
[3] = Volume of distribution in mouse at 3 mg/kg, iv; format: ADME, organism-based; design: dose 3 mg/kg, route intravenous; conditions: in vivo
[4] = Clearance in mouse at 3 mg/kg, iv; format: ADME, organism-based; design: dose 3 mg/kg, route intravenous; conditions: in vivo
[5] = AUC in mouse at 10 mg/kg, po; format: ADME, organism-based; design: dose 10 mg/kg, route oral; conditions: plasma
[6] = Oral bioavailability in mouse at 10 mg/kg; format: ADME, organism-based; conditions: in vivo
[7] = biological target: T1, Vascular endothelial growth factor receptor 2 (Homo sapiens, UniProt P35968)
T1 sequence (P35968 whole entry): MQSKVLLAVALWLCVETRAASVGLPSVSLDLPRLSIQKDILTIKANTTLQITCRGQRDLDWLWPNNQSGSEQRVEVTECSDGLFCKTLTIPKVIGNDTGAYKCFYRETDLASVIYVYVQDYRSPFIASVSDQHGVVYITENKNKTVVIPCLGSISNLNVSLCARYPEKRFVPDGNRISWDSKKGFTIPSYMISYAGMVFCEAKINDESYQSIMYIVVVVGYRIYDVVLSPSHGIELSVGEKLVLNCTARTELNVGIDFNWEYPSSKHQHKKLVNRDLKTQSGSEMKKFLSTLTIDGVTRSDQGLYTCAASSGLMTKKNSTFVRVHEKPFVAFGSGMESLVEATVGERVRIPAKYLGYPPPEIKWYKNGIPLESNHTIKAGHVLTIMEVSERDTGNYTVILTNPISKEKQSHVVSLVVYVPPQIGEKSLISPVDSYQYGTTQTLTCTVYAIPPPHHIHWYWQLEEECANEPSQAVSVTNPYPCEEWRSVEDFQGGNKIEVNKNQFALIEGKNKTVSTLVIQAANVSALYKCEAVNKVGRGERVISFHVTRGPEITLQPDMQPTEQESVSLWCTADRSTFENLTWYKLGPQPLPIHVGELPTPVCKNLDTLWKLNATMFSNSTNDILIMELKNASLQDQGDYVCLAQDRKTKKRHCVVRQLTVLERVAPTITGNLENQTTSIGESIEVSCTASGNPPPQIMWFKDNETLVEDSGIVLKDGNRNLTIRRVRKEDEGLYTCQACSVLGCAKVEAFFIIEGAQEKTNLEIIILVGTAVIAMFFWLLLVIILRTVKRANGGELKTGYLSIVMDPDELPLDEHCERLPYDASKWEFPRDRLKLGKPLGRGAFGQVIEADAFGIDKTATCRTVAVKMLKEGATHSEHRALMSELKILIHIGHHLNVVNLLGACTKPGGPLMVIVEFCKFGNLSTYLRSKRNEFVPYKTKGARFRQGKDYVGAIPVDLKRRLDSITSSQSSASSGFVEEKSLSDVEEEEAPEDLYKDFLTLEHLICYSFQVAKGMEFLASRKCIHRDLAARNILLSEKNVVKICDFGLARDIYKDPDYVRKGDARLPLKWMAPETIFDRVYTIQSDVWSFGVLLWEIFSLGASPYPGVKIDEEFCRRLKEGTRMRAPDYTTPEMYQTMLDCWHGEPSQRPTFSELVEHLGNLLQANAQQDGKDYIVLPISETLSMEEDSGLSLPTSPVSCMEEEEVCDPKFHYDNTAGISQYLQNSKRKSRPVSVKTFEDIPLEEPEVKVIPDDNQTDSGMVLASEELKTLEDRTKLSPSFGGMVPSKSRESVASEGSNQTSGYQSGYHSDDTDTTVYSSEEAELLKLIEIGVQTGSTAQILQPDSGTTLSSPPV
Description: Inhibition of KDR by HTRF assay

[8] = biological target: T1, Vascular endothelial growth factor receptor 2; remark: listed apart in the source
Description: Inhibition of VEGF-induced human KDR phosphorylation in mouse 3T3 cells

[9] = biological target: Vascular endothelial growth factor receptor 1 (Homo sapiens, UniProt P17948); assay: Inhibition of FLT1 by HTRF assay
[10] = biological target: T2, Receptor-type tyrosine-protein kinase FLT3 (Homo sapiens, UniProt P36888); assay: Inhibition of FLT3 by HTRF assay
T2 sequence (P36888 whole entry): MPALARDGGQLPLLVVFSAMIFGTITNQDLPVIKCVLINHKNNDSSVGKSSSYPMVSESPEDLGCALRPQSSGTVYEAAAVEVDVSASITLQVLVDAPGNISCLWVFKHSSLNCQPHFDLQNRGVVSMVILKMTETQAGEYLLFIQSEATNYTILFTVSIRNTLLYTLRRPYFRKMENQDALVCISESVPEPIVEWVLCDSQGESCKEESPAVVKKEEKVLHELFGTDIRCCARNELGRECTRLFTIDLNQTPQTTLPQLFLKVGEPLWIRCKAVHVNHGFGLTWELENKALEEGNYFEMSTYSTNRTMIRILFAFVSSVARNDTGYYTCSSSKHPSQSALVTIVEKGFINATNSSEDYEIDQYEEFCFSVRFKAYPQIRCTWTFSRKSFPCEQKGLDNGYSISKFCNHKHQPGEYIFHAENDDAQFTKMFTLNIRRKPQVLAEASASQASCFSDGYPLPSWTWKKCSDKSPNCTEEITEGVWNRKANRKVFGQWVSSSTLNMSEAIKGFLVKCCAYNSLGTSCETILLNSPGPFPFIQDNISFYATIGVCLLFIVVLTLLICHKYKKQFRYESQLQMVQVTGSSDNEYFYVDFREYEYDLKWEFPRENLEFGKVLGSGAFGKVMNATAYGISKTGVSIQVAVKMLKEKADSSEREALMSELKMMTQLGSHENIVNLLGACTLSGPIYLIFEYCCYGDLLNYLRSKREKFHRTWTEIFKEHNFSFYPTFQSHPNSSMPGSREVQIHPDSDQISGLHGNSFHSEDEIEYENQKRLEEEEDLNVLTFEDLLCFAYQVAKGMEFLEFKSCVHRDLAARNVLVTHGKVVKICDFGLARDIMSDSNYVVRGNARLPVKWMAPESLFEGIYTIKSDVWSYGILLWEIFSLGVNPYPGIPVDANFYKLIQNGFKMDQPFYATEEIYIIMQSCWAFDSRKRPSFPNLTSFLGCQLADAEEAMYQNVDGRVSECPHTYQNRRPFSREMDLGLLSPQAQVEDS

[11] = biological target: Mast/stem cell growth factor receptor Kit (Homo sapiens, UniProt P10721); assay: Inhibition of cKit by HTRF assay
Mast/stem cell growth factor receptor Kit, sequence (P10721 whole entry): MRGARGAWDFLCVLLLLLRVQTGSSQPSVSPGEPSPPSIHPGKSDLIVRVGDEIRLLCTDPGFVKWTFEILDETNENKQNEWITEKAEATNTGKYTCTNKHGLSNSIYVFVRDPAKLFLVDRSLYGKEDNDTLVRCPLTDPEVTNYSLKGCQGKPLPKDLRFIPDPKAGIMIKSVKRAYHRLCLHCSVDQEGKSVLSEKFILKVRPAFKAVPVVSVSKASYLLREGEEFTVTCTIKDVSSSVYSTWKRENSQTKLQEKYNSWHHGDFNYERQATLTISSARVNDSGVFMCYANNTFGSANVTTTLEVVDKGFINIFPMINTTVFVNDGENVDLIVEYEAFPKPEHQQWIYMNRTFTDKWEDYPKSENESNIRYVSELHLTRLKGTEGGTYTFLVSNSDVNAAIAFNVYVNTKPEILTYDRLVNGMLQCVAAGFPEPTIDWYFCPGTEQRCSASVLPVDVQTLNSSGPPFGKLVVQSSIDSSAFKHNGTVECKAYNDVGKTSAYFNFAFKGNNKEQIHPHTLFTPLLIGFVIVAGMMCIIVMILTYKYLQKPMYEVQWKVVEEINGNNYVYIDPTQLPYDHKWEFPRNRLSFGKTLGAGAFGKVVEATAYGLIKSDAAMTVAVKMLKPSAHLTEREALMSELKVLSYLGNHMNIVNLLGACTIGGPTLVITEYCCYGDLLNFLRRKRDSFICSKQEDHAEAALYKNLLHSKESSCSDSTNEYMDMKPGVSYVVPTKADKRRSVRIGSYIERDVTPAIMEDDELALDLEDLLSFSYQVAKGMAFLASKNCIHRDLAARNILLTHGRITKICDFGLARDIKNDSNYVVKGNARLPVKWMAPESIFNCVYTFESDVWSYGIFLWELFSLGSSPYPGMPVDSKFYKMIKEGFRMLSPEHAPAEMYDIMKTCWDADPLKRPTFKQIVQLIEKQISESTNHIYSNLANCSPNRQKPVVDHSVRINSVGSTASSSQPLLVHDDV

[12] = biological target: Macrophage colony-stimulating factor 1 receptor (Homo sapiens, UniProt P07333); assay: Inhibition of CSF1R by HTRF assay
Macrophage colony-stimulating factor 1 receptor, sequence (P07333 whole entry): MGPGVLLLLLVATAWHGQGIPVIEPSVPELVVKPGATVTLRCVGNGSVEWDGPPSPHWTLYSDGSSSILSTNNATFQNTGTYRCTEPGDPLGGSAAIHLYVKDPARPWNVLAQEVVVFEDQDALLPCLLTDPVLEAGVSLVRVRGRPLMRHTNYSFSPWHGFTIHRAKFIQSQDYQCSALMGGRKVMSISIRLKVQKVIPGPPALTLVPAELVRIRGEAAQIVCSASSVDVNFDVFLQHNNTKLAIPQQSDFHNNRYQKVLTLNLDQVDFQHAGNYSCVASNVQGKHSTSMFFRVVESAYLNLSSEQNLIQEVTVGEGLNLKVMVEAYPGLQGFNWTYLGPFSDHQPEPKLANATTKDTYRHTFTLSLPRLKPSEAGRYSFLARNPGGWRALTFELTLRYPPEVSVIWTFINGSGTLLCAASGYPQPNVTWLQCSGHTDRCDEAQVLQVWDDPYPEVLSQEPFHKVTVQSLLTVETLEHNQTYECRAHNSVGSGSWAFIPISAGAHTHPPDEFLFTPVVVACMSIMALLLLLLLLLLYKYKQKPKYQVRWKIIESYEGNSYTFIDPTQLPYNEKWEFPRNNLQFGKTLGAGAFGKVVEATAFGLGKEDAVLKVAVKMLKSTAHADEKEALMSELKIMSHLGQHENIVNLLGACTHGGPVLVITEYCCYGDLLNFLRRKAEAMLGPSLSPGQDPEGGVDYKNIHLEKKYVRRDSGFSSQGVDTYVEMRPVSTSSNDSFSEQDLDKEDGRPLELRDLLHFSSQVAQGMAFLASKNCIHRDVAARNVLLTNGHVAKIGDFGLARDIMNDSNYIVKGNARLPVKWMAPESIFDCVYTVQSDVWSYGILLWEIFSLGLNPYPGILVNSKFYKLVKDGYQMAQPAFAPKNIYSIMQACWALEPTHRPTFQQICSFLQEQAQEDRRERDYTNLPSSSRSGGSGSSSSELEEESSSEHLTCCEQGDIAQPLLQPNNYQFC

[13] = biological target: Tyrosine-protein kinase Fyn (Homo sapiens, UniProt P06241); assay: Inhibition of FYN by HTRF assay
Tyrosine-protein kinase Fyn, sequence (P06241 whole entry): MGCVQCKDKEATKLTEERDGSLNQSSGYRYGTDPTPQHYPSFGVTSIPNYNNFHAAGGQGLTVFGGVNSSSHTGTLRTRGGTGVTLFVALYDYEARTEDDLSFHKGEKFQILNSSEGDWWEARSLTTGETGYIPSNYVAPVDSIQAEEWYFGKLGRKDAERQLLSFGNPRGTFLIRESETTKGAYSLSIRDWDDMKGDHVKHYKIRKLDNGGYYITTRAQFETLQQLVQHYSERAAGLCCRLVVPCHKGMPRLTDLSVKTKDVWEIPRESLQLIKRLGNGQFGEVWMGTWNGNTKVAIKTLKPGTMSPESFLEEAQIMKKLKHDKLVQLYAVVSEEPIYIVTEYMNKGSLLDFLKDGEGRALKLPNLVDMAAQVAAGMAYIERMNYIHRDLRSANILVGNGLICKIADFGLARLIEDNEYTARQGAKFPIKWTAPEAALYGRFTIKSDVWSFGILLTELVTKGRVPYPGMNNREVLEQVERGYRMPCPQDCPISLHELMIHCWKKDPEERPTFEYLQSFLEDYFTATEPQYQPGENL

Cc1ccc(F)c(NC(=O)Nc2ccc(-c3cncc4[nH]nc(N)c34)cc2)c1
inhibition in vivo at 10 mg/kg (Mus musculus): 98%
solubility [1]: 5.8 µM (≈ 2.18 µg/mL)

Nc1n[nH]c2nccc(-c3ccc(NC(=O)Nc4ccccc4)cc3)c12
inhibition in vivo at 10 mg/kg (Mus musculus): 39%

Cn1nc(N)c2c(-c3ccc(NC(=O)Nc4cccc(Cl)c4)cc3)cncc21
inhibition in vivo at 10 mg/kg (Mus musculus): 52%

Nc1n[nH]c2cncc(-c3ccc(NC(=O)Nc4cccc(Cl)c4)cc3)c12
inhibition in vivo at 10 mg/kg (Mus musculus): < 5%

Cc1ccc(F)c(NC(=O)Nc2ccc(-c3cncc4c3c(N)nn4C)cc2)c1
inhibition in vivo at 10 mg/kg (Mus musculus): 72%
half-life [2]: 90 min
Vd [3]: 1.48 L/kg
clearance [4]: 0.69 L/h/kg
AUC [5]: 30.2 µM·h
bioavailability [6]: 81%
pIC50 [7]: 8.11
pIC50 [8]: 8.52

Nc1n[nH]c2nccc(-c3ccc(NC(=O)Nc4ccc(F)c(Cl)c4)cc3)c12
inhibition in vivo at 10 mg/kg (Mus musculus): 55%

Cn1nc(N)c2c(-c3ccc(NC(=O)Nc4ccc(F)c(C(F)(F)F)c4)cc3)cncc21
inhibition in vivo at 10 mg/kg (Mus musculus): 59%

Cc1cccc(NC(=O)Nc2ccc(-c3cncc4c3c(N)nn4C)cc2)c1
inhibition in vivo at 10 mg/kg (Mus musculus): 79%
half-life [2]: 36 min
Vd [3]: 0.66 L/kg
clearance [4]: 0.762 L/h/kg
AUC [5]: 25 µM·h
bioavailability [6]: 71%

Cc1ccc(NC(=O)Nc2ccc(-c3ccnc4[nH]nc(N)c34)cc2)cc1
inhibition in vivo at 10 mg/kg (Mus musculus): < 5%

Cc1cc(NC(=O)Nc2ccc(-c3ccnc4[nH]nc(N)c34)cc2)ccc1F
inhibition in vivo at 10 mg/kg (Mus musculus): 108%

Nc1n[nH]c2cncc(-c3ccc(NC(=O)Nc4cc(C(F)(F)F)ccc4F)cc3)c12
inhibition in vivo at 10 mg/kg (Mus musculus): 35%

Nc1n[nH]c2nccc(-c3ccc(NC(=O)Nc4cccc(C(F)(F)F)c4)cc3)c12
pIC50 [9]: 8.30
pIC50 [10]: 8.70
pIC50 [11]: 8.15
pIC50 [12]: 8.52
pIC50 [13]: 4.93

Cc1cc(NC(=O)Nc2ccc(-c3nccc4[nH]nc(N)c34)cc2)ccc1F
inhibition in vivo at 10 mg/kg (Mus musculus): < 5%

Cc1cc(C)cc(NC(=O)Nc2ccc(-c3ccnc4[nH]nc(N)c34)cc2)c1
inhibition in vivo at 10 mg/kg (Mus musculus): 77%

Cc1cccc(NC(=O)Nc2ccc(-c3cncc4[nH]nc(N)c34)cc2)c1
inhibition in vivo at 10 mg/kg (Mus musculus): 50%

Cc1cc(C)cc(NC(=O)Nc2ccc(-c3nccc4[nH]nc(N)c34)cc2)c1
inhibition in vivo at 10 mg/kg (Mus musculus): < 5%
half-life [2]: 27 min
Vd [3]: 1.71 L/kg
clearance [4]: 2.62 L/h/kg
AUC [5]: 0.89 µM·h
bioavailability [6]: 9%

Nc1n[nH]c2nccc(-c3ccc(NC(=O)Nc4cccc(Cl)c4)cc3)c12
inhibition in vivo at 10 mg/kg (Mus musculus): 23%
solubility [1]: 1.6 µM (≈ 0.606 µg/mL)

Cc1ccc(F)c(NC(=O)Nc2ccc(-c3cccc4[nH]nc(N)c34)cc2)c1 [LINIFANIB]
solubility [1]: 0.07 µM (≈ 0.0263 µg/mL)

Cc1cc(NC(=O)Nc2ccc(-c3cncc4[nH]nc(N)c34)cc2)ccc1F
inhibition in vivo at 10 mg/kg (Mus musculus): 19%

Cc1ccccc1NC(=O)Nc1ccc(-c2ccnc3[nH]nc(N)c23)cc1
inhibition in vivo at 10 mg/kg (Mus musculus): < 5%
pIC50 [7]: 7.46
pIC50 [8]: 8.66

Cc1ccc(F)c(NC(=O)Nc2ccc(-c3ccnc4[nH]nc(N)c34)cc2)c1
inhibition in vivo at 10 mg/kg (Mus musculus): 66%
half-life [2]: 60 min
Vd [3]: 1.5 L/kg
clearance [4]: 1.04 L/h/kg
AUC [5]: 15.7 µM·h
bioavailability [6]: 62%

Nc1n[nH]c2ccnc(-c3ccc(NC(=O)Nc4cccc(C(F)(F)F)c4)cc3)c12
inhibition in vivo at 10 mg/kg (Mus musculus): < 5%

Cc1ccc(F)c(NC(=O)Nc2ccc(-c3nccc4[nH]nc(N)c34)cc2)c1
inhibition in vivo at 10 mg/kg (Mus musculus): < 5%
solubility [1]: 9.5 µM (≈ 3.58 µg/mL)

Source: ChEMBL document CHEMBL1142252, “Identification of aminopyrazolopyridine ureas as potent VEGFR/PDGFR multitargeted kinase inhibitors” (Bioorg Med Chem Lett, 2008)
